Measurements taken from EP0614662A1, “Use of (2E,4E,6E,10E)-3,7,11,15-tetramethyl-2,4,6,10,14-hexadecapentaenoic acid for the treatment of leukaemia” (Eisai Co., Ltd., priority 1993, dated 1994).

How the values were obtained:
HL-60 = assay: Cytotoxicity on HL-60 (viable cell count, Trypan Blue); format: cell-based; settings: human, 5 days
Protocol: After the completion of the incubation, the total cell count was calculated with a Burker-Turk calculation board and the viable cell count was calculated by regarding the cells stained with Trypan Blue as the dead ones. Thus ID₅₀ and LD₅₀ were determined. Further, a cytospin slide was prepared and the morphology of the cells was observed by the May-Giemsa staining method.

mice = settings: cited from earlier work
APL = settings: clinical data, Blood, 72, 567 - 572 (1988); cited from earlier work
[1] = Acute toxicity test, single dose, ICR mice; settings: in vivo, Mouse (ICR)
Protocol: (§1) By using 5 female and 5 male SD rats and ICR mice aged 7 to 8 weeks, the toxicities of the compound of the present invention were tested through oral, intramuscular, subcutaneous and intraperitoneal administrations each in a single dose (medium: 5% gum arabic).

[2] = Acute toxicity test, single dose, SD rats; settings: in vivo, Rat (SD)
Protocol: as §1

cells of APL patients = assay: Ability to induce differentiation of cells of APL patients; format: cell-based, human
Protocol: To illustrate the usefulness of the compound of the present invention as a differentiation inducer, a test example on the effects of the compound of the present invention on leukemic cells of APL patients and various cultured human leukemic cell lites will be given. The backgrounds of the patients providing the bloods employed in the test are as follows.
The cells samples from APL patients were adjusted to an initial cell count of 1 × 10⁶ cells/ml and incubated in the above-mentioned IMDM medium containing 10% of fetal calf serum for 5 days under the addition of the compound (I) or ATRA (10⁻⁶ to 10⁻⁸ mol/1), followed by the same evaluation as the one effected in the case of HL-60. Further, the ratio of mature cells to all the cells was determined in accordance with the following formula and taken as an indication for the comparison of the ability to induce differentiation: [formula]

mouse papilloma = settings: cited from earlier work
[3] = female, ♀, oral, medium 5% gum arabic, read-out: LD₅₀ Oral
[4] = female, ip, ♀, intraperitoneal, read-out: LD₅₀ Intraperitoneal
[5] = female, sc, ♀, subcutaneous, read-out: LD₅₀ Subcutaneous
[6] = male, ♂, oral, medium 5% gum arabic, read-out: LD₅₀ Oral
[7] = male, im, ♂, intramuscular, read-out: LD₅₀ Intramuscular
[8] = male, ip, ♂, intraperitoneal, read-out: LD₅₀ Intraperitoneal
[9] = male, sc, ♂, subcutaneous, read-out: LD₅₀ Subcutaneous

## CC1=C(/C=C/C(C)=C/C=C/C(C)=C/C(=O)O)C(C)(C)CCC1 [ATRA, all-trans-retinoic acid, reference compound]
HL-60
  ratio of the dead cells stained with Trypan Blue: ≤ 10%
mice
  hypervitaminosis A (depilation, reduction in body weight): suffered from hypervitaminosis A including depilation and reduction in body weight
APL
  healing of APL patients: about 100%

## CC(C)=CCC/C(C)=C/CC/C(C)=C/C=C/C(C)=C/C(=O)O [compound (I), (2E,4E,6E,10E)-3,7,11,15-tetramethyl-2,4,6,10,14-hexadecapentaenoic acid]
[1]; [3]
  LD50: > 6250 mg/kg
[1]; female, im, ♀, intramuscular, read-out: LD₅₀ Intramuscular
  LD50: > 2000 mg/kg
[1]; [4]
  LD50: 1.1 mg/kg
[1]; [5]
  LD50: > 4 mg/kg
[1]; [6]
  LD50: > 6250 mg/kg
[1]; [7]
  LD50: 2 mg/kg
[1]; [8]
  LD50: 970 mg/kg
[1]; [9]
  LD50: > 4000 mg/kg
[2]; [3]
  LD50: 2850 mg/kg
[2]; [4]
  LD50: 680 mg/kg
[2]; [5]
  LD50: 2800 mg/kg
[2]; [6]
  LD50: 2400 mg/kg
[2]; [7]
  LD50: 830 mg/kg
[2]; [8]
  LD50: 731 mg/kg
[2]; [9]
  LD50: 2500 mg/kg
HL-60
  ratio of the dead cells stained with Trypan Blue: ≤ 10%
Cells of APL patients; 5 days incubation, 10⁻⁶ to 10⁻⁸ mol/l
  effect of inducing differentiation: exhibited an effect of inducing differentiation similar to ATRA
Cells of APL patients; PML/RAR-α (+)
  efficacy on cells having a fused gene PML-RAR-α: effective in all of the cases
Mouse papilloma
  antitumor effect: exerts an antitumor effect
mice
  hypervitaminosis A (depilation, reduction in body weight): did not suffer from such a symptom
